EC50, IC50 and outcome data for 70 compounds are collected here from PubChem BioAssay AID179 (DTP/NCI, 2004).

The experiment relates to CEM cells HIV-1 protection, formazan growth assay. Put plainly: NCI AIDS Antiviral Assay. The conditions noted are these: for IC50: measured here: growth of uninfected CEM cells. Put shortly:
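Category rules: moderately active means at least 50% protection on retest, and confirmed active means 100% protection reproducibly. The underlying data came from a formazan growth assay in HIV-1-infected CEM cells.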

Several values for one entry are separate records, joined by “and”; a condition that tells them apart may be missing. Equal values may be shown once. Activity calls are given as the source filed them.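 How the source made its calls: active means compounds giving half or more protection of infected cells from virus-caused growth loss, again on retest; inactive means the rest.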 Where a SMILES comes first, the peptide text is derived from it. Where only a bound is given, the exact number is not on record here.

For the compound `COc1cc(/C=C2\Sc3scc(-c4cccc([N+](=O)[O-])c4)[n+]3C2=O)cc(OC)c1OC`, the EC50 was greater than 200 µM and the IC50 is 9.77 µM.

For `CC(C1CCCC1=O)C1CCCC1=O` (configuration not stated), the result was inactive.

For the compound `CS(=O)(=O)c1c(N)c2nc(Cl)cn2c2nc3ccccc3nc12`, the EC50 is greater than 5.75 µM and the IC50 is greater than 5.75 µM.

With `N#CC(C#N)[C@@H]1CCC=C(Sc2ccccc2)[C@H]1Sc1ccccc1`, the EC50 was greater than 20 µM and the IC50 came to 3.63 µM.

As to `CC(C)(C)OC(=O)[C@@H]1CCC(=O)N1C1(c2ccccc2)c2ccccc2-c2ccccc21`, the EC50 is greater than 200 µM and the IC50 was found to be 141 µM.

Regarding `COC(=O)c1c(C)cc(OC(=O)c2c(C)cc(O)c(/C=N\O)c2O)c(C)c1O`, the EC50 is greater than 151 µM and the half-inhibitory concentration (IC50) came out at 9.77 µM.

Consider `Cc1cn(COCCCSc2ccccc2)c(=O)[nH]c1=O`, for which the EC50 was 21.9 µM and the half-inhibitory concentration (IC50) is 166 µM.

As for `Cc1cc(C)c2c(c1)CC1(Cc3c(C)ccc(C)c3C1=O)C2=O` (configuration not stated), the EC50 was greater than 100 µM and the concentration for half-maximal inhibition (IC50) was greater than 100 µM.

As for `CCCN(CCC)C(=O)c1c([N+](=O)[O-])cc(C(F)(F)F)cc1[N+](=O)[O-]`, the result was inactive.

As to `CN(C)[C@@H]1C(=O)C(C(=O)NCNC(CO)(CO)CO)=C(O)[C@@]2(O)C(=O)C3=C(O)c4c(O)cccc4[C@@](C)(O)[C@H]3C[C@@H]12`, the EC50 was greater than 42.7 µM and the half-maximal inhibitory concentration (IC50) came to 33.9 µM.

On to `CC[C@@H]1ON(C)[C@H]2CN(C)C(=O)[C@@H]12`, for which the EC50 was greater than 200 µM and the IC50 is greater than 200 µM.

Regarding `CCC[C@H]1C(=O)N=C(N)N1C(=O)OCc1ccccc1`, the EC50 is greater than 200 µM and the IC50 is greater than 200 µM.

Regarding `CSC(=Nc1cc2ccccc2c2ccccc12)NC#N`, the EC50 was greater than 34.7 µM and the IC50 is 26.9 µM.

In the case of `N#Cc1ccc(Sc2ccccc2)cc1C#N`, the EC50 is greater than 110 µM and the IC50 was greater than 110 µM.

In the case of `CC1(C)CC(=O)C(Cc2ccccc2)(Cc2ccccc2)C(=O)C1`, the result was inactive.

As to `COc1ccc(C(=O)NNC(=O)c2nsc3ccccc23)cc1`, the EC50 was greater than 41.7 µM and the IC50 was greater than 41.7 µM.

`COc1cc2nc(CC(O)c3nc4cc(OC)c(OC)cc4[nH]3)[nH]c2cc1OC` (configuration not stated): the EC50 is greater than 200 µM and the IC50 worked out at 17.4 µM.

`C=C1[C@@H](OC(C)=O)C[C@@H]2C[C@]3(C)C(OC(C)=O)CC(C)(C)[C@@H]3C12O` (some centres not stated): the EC50 was greater than 204 µM and the IC50 was greater than 204 µM.

With `CCOC(=O)c1nnc(-c2ccccc2)nc1Cl`, the EC50 was greater than 200 µM and the concentration for half-maximal inhibition (IC50) was greater than 200 µM.

Regarding `CC(=O)OCSc1ncnc2c1ncn2CN1CCOCC1`, the EC50 was greater than 776 µM and the half-inhibitory concentration (IC50) amounted to 0.575 µM.

`S=c1ncc2n[nH]nc2[nH]1`: the EC50 is greater than 200 µM and the IC50 is greater than 200 µM.

Turning to `O=c1c(-c2c(O)cc(O)c3c2O[C@H](c2ccc(O)cc2)[C@@H](O)C3)c(-c2ccc(O)cc2)oc2cc(O)cc(O)c12`, the EC50 was > 200 µM and 31.6 µM; the IC50 is 75.9 µM and > 100 µM.

As for `O=C1/C(=C/c2ccccc2)CCc2ccccc21`, the EC50 was greater than 200 µM and the IC50 turned out to be 11.5 µM.

As to `CCCNC(=S)/N=C\c1c(O)c2ccccc2oc1=O`, the EC50 is greater than 200 µM and the IC50 was greater than 200 µM.

`O=C(CCCN1CCC2(CC1)CC(=O)N(N1CCOCC1)C2=O)c1ccccc1`: the EC50 was greater than 200 µM and the half-inhibitory concentration (IC50) was greater than 200 µM.

On to `O=C1OC(c2ccccc2)=N/C1=C\c1ccc(Oc2ccc(Cl)c(Cl)c2)cc1`, for which the EC50 was greater than 2.51 µM and the IC50 is greater than 2.51 µM.

Consider `CN/N=C/c1c2c(O)c3c(O)c(C)c4c(c3c1O)C(=O)C(C)(O/C=C/C(OC)C(C)C(OC(C)=O)C(C)C(O)C(C)C(O)C(C)/C=C/C=C(/C)C(=O)N2)O4` (configuration not stated), for which the EC50 was greater than 200 µM and the IC50 stood at 26.3 µM.

For the compound `CCN=C1SC2C(=O)N(C)C(S1)C(=O)N2C`, the EC50 is greater than 692 µM and the IC50 amounted to 36.3 µM.

For `COc1cc2c(cc1OC)C1Cc3cc(OC)c(OC)cc3C(C2)O1`, the EC50 was greater than 200 µM and the IC50 was 105 µM.

Regarding `CCCC(=N\N=C(N)N)/C(C)=N/N=C(N)N`, the EC50 is greater than 79.4 µM and the IC50 is greater than 79.4 µM.

As for `O=C1C2=Cc3ccccc3OC2(O)Oc2cc(O)ccc21` (configuration not stated), the EC50 was greater than 200 µM and the 50% inhibitory concentration (IC50) was 49 µM.

For the compound `O=C1NC(=O)C(F)(n2cc(F)c(=O)[nH]c2=O)C(O)N1` (configuration not stated), the EC50 is greater than 200 µM and the IC50 was determined as 55 µM.

On to `CCCCCCCCN(CCCCCCCC)/N=C/c1c2c(O)c3c(O)c(C)c4c(c3c1O)C(=O)C(C)(O/C=C/C(OC)C(C)C(OC(C)=O)C(C)C(O)C(C)C(O)C(C)/C=C/C=C(C)C(=O)N2)O4` (configuration not stated), for which the outcome was inactive.

Turning to `CC1=C2C(=CO[C@H](C)[C@H]2C)C(=O)C(C(=O)O)=C1O`, the EC50 is greater than 145 µM and the half-inhibitory concentration (IC50) worked out at 25.1 µM.

With `COc1ccc(/C=C/C(=N\NC(=O)c2ccccc2)c2sc(Nc3ccc([N+](=O)[O-])cc3)nc2C)cc1OC`, the EC50 was greater than 13.2 µM and the IC50 was greater than 13.2 µM.

Take `CCOc1ccc(C2(C)OC(=O)C3CCCCC32)c2ccccc12` (configuration not stated): the outcome was inactive.

As for `COc1ccccc1C(=O)NCC1CCCN2CCCCC12` (configuration not stated), the EC50 is greater than 200 µM and the IC50 was greater than 200 µM.

Turning to `CNc1ccc2ncccc2c1[N+](=O)[O-]`, the EC50 is greater than 46.8 µM and the IC50 was greater than 46.8 µM.

Take `O=C1CC(c2ccccc2)Sc2ccccc2N1` (configuration not stated): the EC50 was greater than 200 µM and the IC50 was determined as 89.1 µM.

For the compound `Cc1ccc(C)c2c1C/C(=C\c1ccccc1C(=O)O)C2=O`, the EC50 was greater than 200 µM and the IC50 amounted to 83.2 µM.

Regarding `Cc1nc2ccc(S(=O)(=O)Nc3ccccc3)cc2c(=O)n1NC(=O)CNc1ccccc1`, the EC50 is greater than 200 µM and the IC50 was determined as 186 µM.

As for `S=C(c1c[nH]c2ccccc12)N1CCCCC1`, the EC50 was greater than 200 µM and the IC50 stood at 44.7 µM.

For the compound `Nc1cc(Cl)ccc1N1C(=O)CCC1=O`, the EC50 is 166 µM and the IC50 is greater than 200 µM.

On to `Clc1ccc(C=NC23CC4CC(CC(C4)C2)C3)c(Cl)c1`, for which the result was inactive.

Turning to `O=C(CCc1nnc2s/c(=C\c3ccccc3Cl)c(=O)n12)Nc1cc(Cl)ccc1Cl`, the EC50 was greater than 525 µM and the IC50 is greater than 525 µM.

In the case of `Cc1cc2c(c(S(=O)(=O)c3ccccc3[N+](=O)[O-])c1)NCCC2`, the EC50 is 1.55 µM and the IC50 amounted to 21.4 µM.

On to `COC1=CC(=O)C(Br)=CC1=O`, for which the outcome was inactive.

As to `O=c1[nH]nnc2c1cnn2C1CCCO1` (configuration not stated), the result was inactive.

`COC(=O)c1sc2nc(Nc3ccccc3)c(=Nc3ccccc3)sc2c1C`: the EC50 was greater than 200 µM and the IC50 is greater than 200 µM.

In the case of `CCOC(=O)Cc1c(Cc2[nH]c(C(=O)OCc3ccccc3)c(CC(=O)OCC)c2CC(=O)OCC)[nH]c(C(=O)OCc2ccccc2)c1CC(=O)OCC`, the EC50 is greater than 5.01 µM and the IC50 is greater than 5.01 µM.

`CCCCCCCCCCCCCCCC(=O)Nc1ccn(C2CCC(COP(=O)(O)OC3CC(n4cc(F)c(=O)[nH]c4=O)OC3CO)O2)c(=O)n1` (configuration not stated): the EC50 is greater than 0.126 µM and the IC50 is 0.038 µM.

As to `[O-][n+]1onc2c3nn(-c4ccccc4)nc3ccc21`, the EC50 is greater than 200 µM and the 50% inhibitory concentration (IC50) stood at 12 µM.

`CC(C1=C(CCN(C)C)Cc2ccccc21)c1ccccn1` (configuration not stated): the EC50 was greater than 200 µM and the IC50 was 155 µM.

Take `CCOC(=O)CCC(NC(=O)c1ccc(Nc2nc3cc(C(F)(F)F)ccc3nc2-c2ccccc2)cc1)C(=O)OCC` (configuration not stated): the EC50 is greater than 200 µM and the IC50 was 8.13 µM.

In the case of `S=C1N(/N=C/c2c3ccccc3cc3ccccc23)C(=Nc2ccccc2)C(=Nc2ccccc2)N1c1ccccc1`, the EC50 is greater than 200 µM and the half-maximal inhibitory concentration (IC50) is greater than 200 µM.

Consider `CSc1c(C(=O)Nc2ccc(Cl)cc2)c(N)nn1-c1ccccc1`, for which the EC50 was greater than 200 µM and the IC50 was greater than 200 µM.

`CNC(=O)CNC(=O)C(NC(=O)CNC(=O)C1CCCN1C(=O)C(C)NC(=O)C(NC(C)=O)C(C)C)C(C)C` (configuration not stated) (Ac-VAPGVG-NHMe; configuration not given here): the EC50 is greater than 200 µM and the IC50 is greater than 200 µM.

Consider `CSC(SC)=C(C#N)C(=O)Nc1ccc(C)cc1`, for which the EC50 is greater than 200 µM and the IC50 amounted to 3.63 µM.

With `C/C(=N\N=C(N)N)C(CN1CCOCC1)C(c1ccccc1)c1c(O)c2ccccc2oc1=O` (configuration not stated), the EC50 was greater than 52.5 µM and the IC50 is greater than 52.5 µM.

As to `CCCCCCCCCCCCCCCC(=O)NC(Cc1c[nH]c2ccccc12)C(=O)O` (configuration not stated), the EC50 was greater than 200 µM and the IC50 was 50.1 µM.

With `CN1CCN(C(=S)N(C(=O)c2cccs2)c2ccccc2)CC1`, the EC50 is greater than 105 µM and the IC50 is greater than 105 µM.

Turning to `O=c1cc(N2CCOCC2)n2ccccc2n1`, the EC50 is greater than 200 µM and the half-inhibitory concentration (IC50) is greater than 200 µM.

As for `Cc1cc(Cl)c(O)c(-c2cc(-c3ccc([N+](=O)[O-])cc3)c3c(N)[nH]c(=O)nc3n2)c1`, the EC50 is greater than 200 µM and the IC50 is 5.25 µM.

For `CSC1=NC=C(C#N)C2=NC(c3cccs3)NN12` (configuration not stated), the EC50 is greater than 339 µM and the IC50 came to 20.4 µM.

On to `CC(C)(C)C1CCC2(CC1)CC(=O)N(N1CCCCCC1)C(=O)C2`, for which the EC50 was greater than 200 µM and the half-inhibitory concentration (IC50) turned out to be 55 µM.

Consider `Cc1ccc2c(c1)[n+]([O-])c(N)n[n+]2[O-]`, for which the EC50 was greater than 200 µM and the half-inhibitory concentration (IC50) stood at 19.1 µM.

Turning to `CCOC(=O)/C(=C\c1ccc(C)cc1)[Se]c1ccccc1`, the EC50 was greater than 5.75 µM and the IC50 is greater than 5.75 µM.

On to `CC(=O)Oc1cc(C)c(OC(C)=O)c2c1[C@H]1CC[C@]3(C)[C@@H](OC(C)=O)CC[C@H]3[C@@H]1CC2`, for which the EC50 is greater than 200 µM and the IC50 worked out at 16.6 µM.

Turning to `O=c1[nH]c2cc([N+](=O)[O-])ccc2nc1/C(=N/Nc1ccccc1)C(O)c1ccco1` (configuration not stated), the EC50 is greater than 234 µM and the IC50 is 89.1 µM.

Consider `NNC(=O)c1ccccc1NC(=O)/C(=C/c1ccccc1)NC(=O)c1ccccc1`, for which the EC50 is greater than 200 µM and the IC50 turned out to be 87.1 µM.
